Laboratory results as given in patent US6124347A, “Chromene derivatives and salts thereof, and pharmaceuticals containing the same” (SSP Co., Ltd., priority 1997, dated 2000).
≈ marks a conversion by molar mass, not a printed value.

System: ovolysozyme
Assay: AGE formation inhibitory action (lysozyme dimer formation with xylose, SDS-PAGE, silver staining)
Type: biochemical
Settings: 1 mg/ml ovolysozyme, 100 mM xylose, pH 7.4, 37° C., 21 days; dimer (28.8 Kda) formation relative to control
Experimental: With respect to each test compound, solutions of the test compound in dimethyl sulfoxide, said solutions containing said test compound at various concentrations, were each added together with 1 mg/ml of ovolysozyme and 100 mM of xylose to a phosphate-buffered physiological saline of pH 7.4. Each reaction mixture was then incubated at 37° C. for 21 days. A portion of the reaction mixture, said portion being in a predetermined amount, was then separated by sodium lauryl sulfate-polyacrylamide gel electrophoresis (SDS-PAGE). After the electrophoresis, the gel was treated by silver staining to stain proteins. AGE formation inhibitory action of the test compound was calculated in terms of 50% inhibitory concentration by image-processing and analyzing the degree of formation of the dimer (28.8 Kda) of lysozyme (14.4 Kda) relative to that in a control, that is, a reaction mixture not added with the test compound while making use of NIH Image Ver. 1.55.

In order of rising “IC50 (AGE formation inhibitory action, 50% inhibitory concentration)” value:
1. COc1cccc2c1OCC(CNCC(O)c1ccc(O)c(O)c1)=C2 (stereo not shown) [Compound 15]  3 µg/mL (≈ 8.74 µM)
2. Oc1cccc(C(O)CNCC2=Cc3ccccc3OC2)c1 (stereo not shown) [Compound 6]  10 µg/mL (≈ 33.6 µM)
3. N=C(N)NN [Amionoguanidine, aminoguanidine, reference compound]  30 µg/mL (≈ 405 µM)
4. COc1cc(C(O)CNCC2=Cc3ccccc3OC2)cc(OC)c1O (stereo not shown) [Compound 9, 4-{2-[(2H-3-chromenylmethyl)amino]-1-hydroxyethyl}-2,6-dimethoxyphenol]  30 µg/mL (≈ 83.9 µM)
